Test results: patent US4425356A, “Lankacidin derivatives used in swine husbandry” (Takeda Chemical Industries, Ltd., priority 1980, dated 1984)
≈ marks a conversion by molar mass, not a printed value. Read-outs that look alike come from different tables or passages of the source.

What was measured:
[1] = tested on: Treponema hyodysenteriae 78/A strain; assay: efficacy against swine dysentery under experimental infection conditions in pigs (drug in feed), Test Examples 5-7; type: in vivo, Landrace pigs
Procedure: Lankacidin C was tested for efficacy against swine dysentery under experimental infection conditions. Thus, twelve 6-week-old Landrace pigs (4 per group) were used. The test drug was admixed to a concentration of 100 ppm with the domestically formulated starter feed for young pigs without antibiotics. The animals were provided with the ration ad libitum. Infection of the pigs was effected by direct intragastrical administration to the SPF pigs of an inoculum prepared by preliminary anaerobic cultivation of the Treponema hyodysenteriae 78/A strain on a 5% horse blood added agar plate, mashing together with the culture medium and admixing with 5% mucin added phosphate buffer. Colonic contents and mucosa were collected from pigs which developed typical signs of swine dysentery, and diluted two-fold with 5% mucin added phosphate buffer. The dilution was used as the final inoculum, and 100 ml of the dilution was directly injected into the stomach of test pigs at the age of 7 weeks (fasted for 24 hours before infection). The pigs were fed for 21 days following infection.
The data are each the mean value per head for the 21day period from
infection to autopsy. Different alphabetic letters on the same line
indicate that there is a significant difference between the data to which
they are attached (P <0.05).
Lankacidin C was tested at concentrations in feed of 100 ppm and lower by the same method as in Test Example 5, with carbadox, a commonly used anti-swine-dysentery agent, for comparison.
The anti-swine-dysentery effects of 10 ppm each of lankacidin A and lankacidin C 14-propionate were examined by the procedure of Test Example 6.

[2] = tested on: Treponema hyodysenteriae 78/A strain; assay: therapeutic administration in pigs showing clinical signs of swine dysentery, Test Examples 8-9; type: in vivo; conditions: for Condition of feces: Table 9, individual pig
Procedure: This test was conducted under the conditions of so-called therapeutic administration. […] The method of infection was the same as in Test Example 5. […] Simultaneously with showing of the signs, the pigs were provided with a feed containing 50 ppm of lankacidin C. […] After 2 days, the viable count for the pathogen in feces was below the detection limit (10^2 CFU/g).
The condition of feces was rated at one of the following four classes:
.circle. normal; loose; diarrheal; .circleincircle. mucous and bloody
count is below the detection limit (10^2 CFU/g).
The symbol * indicates those days on which the feed containing 50 ppm of
lankacidin C was given.
Lankacidins were tested for therapeutic effects in swine dysentery under therapeutic conditions in the same manner as in Test Example 8. The effects were judged based on the condition of feces.
The condition of feces was rated at one of the following four classes;
The symbol * indicates the days on which the feed containing 50 ppm of th

Treponema hyodysenteriae [3] = assay: efficacy in experimental infection in mice with swine dysentery, Test Example 4; type: in vivo; conditions: 5 mg/kg/day oral, day 1 to day 4; seven days after infection
Procedure: Lankacidin A, lankacidin C, lankacidin C 8-acetate, lankacidin C 14-propionate, lankacidinol A and lankacidinol were tested for efficacy against swine dysentery in experimental infection in mice with swine dysentery.
The similar experimental infection model of swine dysentery in mice as that described, for example, by Joens et al. in Infection and Immunity, 25, 757-760 (1979), American Journal of Veterinary Research, 41, 1225-1226 (1980) and Veterinary Record, 107, 527-529 (1980) was used. Thus, a field isolate of Treponema hyodysenteriae anaerobically cultivated on the 5% defibrinated horse blood added Trypticase soy agar (BBL) plate was mashed together with the culture medium and diluted two-fold with Trypticase soy broth (BBL). Mice were inoculated intragastrically with this infecting dilution. Each test agent was suspended in 5% gum arabic solution and forcibly administered orally from day 1 to day 4 following infection. Seven days after infection, the cecum was examined for lesions, and the cecum was mashed together with the contents and subjected to Treponema hyodysenteriae counting. Excellent efficacy was produced in each of the drug-administered groups.

Treponema hyodysenteriae [4] = assay: in vitro antibacterial activity (MIC, agar dilution method), Test Examples 1-3; type: cell-based; conditions: 37° C., 2 days, anaerobic; for MIC: Brachyspira hyodysenteriae, 48 h, read-out: Minimum Inhibitory Concentration
Procedure: Several agents were tested for in vitro antibacterial activity against Treponema hyodysenteriae, the pathogenic bacteria causing swine dysentery, by the method of testing drug sensitivity of Treponema hyodysenteriae (Kashiwazaki et al. Abstracts of Papers presented at the 82nd Meeting of the Japanese Society of Veterinary Science, page 101, 1976).
(1) Strains: These strains belong to Treponema hyodysenteriae isolated
from the bloody mucous faeces of dysenteric pigs in Japan.
(2) Antimicrobial activity assay: Agar dilution method
(3) Inoculum size: A loopful of bacterial suspension (10^6 CFU/ml)
(4) Cultural conditions: GasPak anaerobic system (BBL), 37° C., 2
Typical agents among compound (I) were tested for in vitro antibacterial activity by the same method as in Test Example 1.
The experimental conditions are the same as in Test Example 1 (Table 1).
Agents of compound (I) were tested for in vitro antibacterial activity by the same method as in Test Example 1.

[5] = 10 ppm in feed, 21-day test period
[6] = 10 ppm in feed, 21 day period, mean per head

Q: What does the source list for `CC(=O)OC1C=CC(C)=CCC(O)C=CC(C)=CC(NC(=O)C(C)=O)C2(C)C(=O)OC(C1)C(C)C2=O` (stereo not drawn) [Lankacidin A, lankacidin A]?
A: Number of pigs from which the pathogen was detected, in colonic mucosa ([1]; 10 ppm in feed): 0; Number of pigs from which the pathogen was detected, in feces ([1]; 10 ppm in feed): 0; Number of pigs showing colonic lesions ([1]; 10 ppm in feed): 0; Number of days on which diarrhea was observed [1, 5]: 0 days; Number of days on which mucous bloody stool was observed [1, 5]: 0 days; Number of pigs showing signs of infection/number of pigs used [1, 5]: 0/4; Body weight gain [1, 6]: 567 grams/day; Feed conversion [1, 6]: 1.76; Feed intake [1, 6]: 21.0 kg; Body weight at the time of completion of test ([1]; 10 ppm in feed, mean per head): 22.9 kg; effect against swine dysentery (in words) ([1]; pig, in vivo): distinctly effective against swine dysentery; therapeutic effect in swine dysentery (in words) ([2]; 50 ppm in feed): therapeutically effective; Condition of feces ([2]; 50 ppm in feed days 0-6, day 7): .circle.; Condition of feces ([2]; 50 ppm in feed days 0-6, day 8): .circle.; Condition of feces ([2]; 50 ppm in feed days 0-6, day 9): .circle.; Condition of feces ([2]; 50 ppm in feed days 0-6, day 10): .circle.; Condition of feces ([2]; 50 ppm in feed days 0-6, day 11): .circle.; Condition of feces ([2]; 50 ppm in feed days 0-6, day 12): .circle.; Condition of feces ([2]; 50 ppm in feed days 0-6, day 13): .circle.; Condition of feces ([2]; 50 ppm in feed days 0-6, day 14): .circle.; Condition of feces ([2]; 50 ppm in feed days 0-6, day 15): .circle.; Condition of feces ([2]; 50 ppm in feed days 0-6, day 16): .circle.; Condition of feces ([2]; 50 ppm in feed days 0-6, day 17): .circle.; Condition of feces ([2]; 50 ppm in feed days 0-6, day 18): .circle.; Condition of feces ([2]; 50 ppm in feed days 0-6, day 19): .circle.; Condition of feces ([2]; 50 ppm in feed days 0-6, day 20): .circle.; Condition of feces ([2]; 50 ppm in feed days 0-6, day 21): .circle.; Condition of feces ([2]; 50 ppm in feed, day 0 after manifestation of signs): .circleincircle.; Condition of feces ([2]; 50 ppm in feed, day 1): .circle.; Condition of feces ([2]; 50 ppm in feed, day 2): .circle.; Condition of feces ([2]; 50 ppm in feed, day 3): .circle.; Condition of feces ([2]; 50 ppm in feed, day 4): .circle.; Condition of feces ([2]; 50 ppm in feed, day 5): .circle.; Condition of feces ([2]; 50 ppm in feed, day 6): .circle.; Number of mice from which the pathogen was detected/number of mice tested (Treponema hyodysenteriae [3]): 1/5; Number of mice with cecal lesions/number of mice tested (Treponema hyodysenteriae [3]): 0/5; MIC (Treponema hyodysenteriae [4]; strain 78/A): 3.13 µg/mL (≈ 6.24 µM); MIC (Treponema hyodysenteriae [4]; strain CD1 (CD-1)): 6.25 µg/mL (≈ 12.5 µM); MIC (Treponema hyodysenteriae [4]; strain DJ70P1): 6.25 µg/mL (≈ 12.5 µM); MIC (Treponema hyodysenteriae [4]; strain MK-2): 3.13 µg/mL (≈ 6.24 µM); Minimum Inhibitory Concentration (Treponema hyodysenteriae [4]; strain DJ70P1): 3.13 µg/mL; Minimum Inhibitory Concentration (Treponema hyodysenteriae [4]; strain MK-2): 6.25 µg/mL
